Assay results published in patent publication US7767645B2, “SH2 domain binding inhibitors” (The United States of America as represented by the …, priority 2003, dated 2010).

Assays:
[1] = target: T1, Grb2 SH2 domain protein (b-Grb2) (Homo sapiens, UniProt P62993); assay: Surface Plasmon Resonance (SPR) determination of Grb2 SH2 domain-binding Kd values; settings: BIACORE S51, immobilized biotinylated Grb2 SH2 domain, 25° C., PBS pH 7.4
T1 construct: All Biotinylated Grb2 SH2 domain protein (b-Grb2) was expressed and purified; biotin (biotinylated)
Procedure: Binding affinities were determined as follows. Surface Plasmon Resonance (SPR) Determination of Grb2 SH2 Domain-Binding Kd Values. Binding experiments were performed on a BIACORE S51 instrument (Biacore Inc., Piscataway N.J.). All Biotinylated Grb2 SH2 domain protein (b-Grb2) was expressed and purified (Protein Expression Laboratory and The Protein Chemistry Laboratory, SAIC—Frederick). The b-Grb2 was immobilized onto carboxymethyl 5′ dextran surface (CM5 sensor chip, Biacore Inc.) by amine coupling. The lyophilized b-Grb2 was reconstituted in fifty percent DMSO in H2O to make a stock solution of 1 mg/mL and stored at −80° C. A 1:12.5 dilution of b-Grb2 was used for immobilization and prepared by dilution in acetate buffer pH-5.0, with 5% DMSO. 1×PBS (phosphate buffered saline, pH 7.4) was used as the running buffer.
An immobilization wizard was used to facilitate immobilization targeting. For b-Grb2, 2500-5000 resonance units (RU) of protein were captured on the CM5 sensor chip. Small molecule ligands were serially diluted in running buffer to concentrations of 1.25 nM-1500 nM, as described in each sensorgram and injected at 25° C. at a flow rate of 30 μl/min for 1 minute and dissociation was monitored for an additional 3 minutes. Surface regeneration was not used. Samples of differing concentrations of small molecule ligands were injected in increasing concentration, with every injection being performed in duplicate within each experiment. In order to subtract background noise from each data set, all samples were also run over an unmodified reference surface and injections of running buffer were performed throughout every experiment (“double referencing”). Up to six data sets were fit to a simple 1:1 interaction model or to a surface heterogeneity model (“complex model”) for compound 41, using the global data analysis program CLAMP. Myszka, D. G.; Morton, T. A.; CLAMP: A biosensor kinetic data analysis program. Trends Biochem. Sci. 1998, 23, 149-150. The mean of the ratio and associated error were calculated according to known procedures. van Kempen, G. M.; van Vliet, L. J.; Mean and variance of ratio estimators used in fluorescence ratio imaging. Cytometry 2000, 39, 300-305.

[2] = target: T2, Grb2 SH2 domain-MBP fusion protein (Homo sapiens, UniProt P62993); assay: ELISA-based determination of Grb2 SH2 domain-binding IC50 values; settings: competition with HRP-SA-biotinylated-phosphopeptide complex
T2 construct: is added biotinylated Grb2 SH2 domain-MBP fusion protein; biotin (biotinylated)
Procedure: ELISA-Based Determination of Grb2 SH2 Domain-Binding IC50 Values. To multiwell plates pre-coated with streptavidin (SA) is added biotinylated Grb2 SH2 domain-MBP fusion protein. SH2 domain-fusion protein binds to the SA on the plate and unbound protein is then washed away and the plate is blocked using the commercial ELISA blocking agent, I-Block that contains detergent and casein (a milk protein). This blocking agent prevents subsequently-added constituents from sticking to the plastic well non-specifically. To the wells is then added horseradish peroxidase-(HRP)-SA-biotinylated-phosphopeptide as a pre-formed complex (termed “Complex”). [NOTE: The HRP-SA-biotinylated phosphopeptide complex is prepared ahead of time by combining a vast molar excess of SA-HRP with the biotinylated phosphopeptide to assure that all of the biotin sites are bound to SA-HRP before they are added to the well. This prevents those biotin sites from sticking to the SA coating on the plate, which would generate a signal even in the absence of biotinylated Grb2 SH2 domain-MBP fusion protein.] This complex binds to the Grb2 SH2 domain via the phosphopeptide. Unbound Complex is washed away before adding HRP substrate (OPD) to generate a color that is measured spectrophotometrically. Synthetic SH2 domain binding antagonists, at various concentrations, are added to wells in the presence of Complex to compete for HRP-SA-biotinylated-phosphopeptide binding to Grb2 SH2 domain protein. The intensity of the resulting color for each well as a function of the concentration of synthetic inhibitor added is recorded.

T2 sequence (P62993 60-152 limits assumed): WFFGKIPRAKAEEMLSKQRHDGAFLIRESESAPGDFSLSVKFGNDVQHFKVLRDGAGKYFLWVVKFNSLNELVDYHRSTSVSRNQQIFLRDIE
T1 sequence (P62993 60-152 limits assumed): as above

| Structure (SMILES) | Kd [1] | IC50 [2] |
| --- | --- | --- |
| Cc1ccc2c(ccn2CC2CC=CC(c3ccc(CP(=O)(O)O)cc3)C(CC(=O)O)C(=O)NC3(CCCCC3)C(=O)NC(CC(N)=O)C(=O)NC2)c1 (centres unmarked) [Compound 6] | 1.67 nM |  |
| Cc1ccc2c(ccn2CC2CC=CC(c3ccc(NC(=O)C(=O)O)cc3)C(CC(=O)O)C(=O)NC3(CCCCC3)C(=O)NC(CC(N)=O)C(=O)NC2)c1 (centres unmarked) [Compound 28] | 67 nM | 8.8 nM |
| Cc1ccc2c(ccn2CC2CC=CC(c3ccc(C(C(=O)O)C(=O)O)cc3)C(CC(=O)O)C(=O)NC3(CCCCC3)C(=O)NC(CC(N)=O)C(=O)NC2)c1 (centres unmarked) [Compound 32] | 3.62 nM | 3.3 nM |
| Cc1ccc2c(ccn2CC2CC=CC(c3ccc(CC(=O)O)cc3)C(CC(=O)O)C(=O)NC3(CCCCC3)C(=O)NC(CC(N)=O)C(=O)NC2)c1 (centres unmarked) [Compound 33] |  | 22.5 nM |
| Cc1ccc2c(ccn2CC2CC=CC(c3ccc(CP(=O)(O)Cc4ccccc4)cc3)C(CC(=O)O)C(=O)NC3(CCCCC3)C(=O)NC(CC(N)=O)C(=O)NC2)c1 (centres unmarked) [Compound 41] | 35.3 nM | 8.4 nM |
